Source: publication PMC7559897, “Designed Antimicrobial Peptides Against Trauma-Related Cutaneous Invasive Fungal Wound Infections” (Journal of Fungi, 2020)
Converted amounts (≈) assume the structure as drawn. Bridge positions count the residues as written; N and C are the ends. Peptide text beside a SMILES is read from it.

Tests used:
A. baumannii 6043 = format: cell-based, Acinetobacter baumannii; conditions: cation adjusted Mueller-Hinton broth, ~10^6 CFU/mL, 24 h, 37 °C, OD600 <0.1 in at least 3 of 4 wells, 2-128 μg/mL; shaded values previously reported ref 18
Summary of the method: (§1)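 MIC = lowest dAMP level giving OD600 <0.1 in at least three of four replicate wells after 24 h at 37 °C. Inoculum ~10^6 CFU/mL in 2X cation-adjusted Mueller–Hinton broth; potato dextrose broth for the fungal isolate. Test range 2–128 μg/mL plus untreated.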

A. baumannii ATCC 17978 = format: cell-based, Acinetobacter baumannii; conditions: cation adjusted Mueller-Hinton broth, ~10^6 CFU/mL, 24 h, 37 °C, OD600 <0.1 in at least 3 of 4 wells, 2-128 μg/mL; shaded values previously reported ref 18
Summary of the method: as §1

A. baumannii 6838 = format: cell-based, Acinetobacter baumannii; conditions: cation adjusted Mueller-Hinton broth, ~10^6 CFU/mL, 24 h, 37 °C, OD600 <0.1 in at least 3 of 4 wells, 2-128 μg/mL; shaded values previously reported ref 18
Summary of the method: as §1

MRSA ATCC 33592 = format: cell-based, Staphylococcus aureus; conditions: cation adjusted Mueller-Hinton broth, ~10^6 CFU/mL, 24 h, 37 °C, OD600 <0.1 in at least 3 of 4 wells, 2-128 μg/mL; shaded values previously reported ref 18
Summary of the method: as §1

S. aureus B-767 = format: cell-based, Staphylococcus aureus; conditions: cation adjusted Mueller-Hinton broth, ~10^6 CFU/mL, 24 h, 37 °C, OD600 <0.1 in at least 3 of 4 wells, 2-128 μg/mL; shaded values previously reported ref 18
Summary of the method: as §1

MRSA 6313 = format: cell-based, Staphylococcus aureus; conditions: cation adjusted Mueller-Hinton broth, ~10^6 CFU/mL, 24 h, 37 °C, OD600 <0.1 in at least 3 of 4 wells, 2-128 μg/mL; shaded values previously reported ref 18
Summary of the method: as §1

MRSA 6381 = format: cell-based, Staphylococcus aureus; conditions: cation adjusted Mueller-Hinton broth, ~10^6 CFU/mL, 24 h, 37 °C, OD600 <0.1 in at least 3 of 4 wells, 2-128 μg/mL; shaded values previously reported ref 18
Summary of the method: as §1

S. aureus 6061 = format: cell-based, Staphylococcus aureus; conditions: cation adjusted Mueller-Hinton broth, ~10^6 CFU/mL, 24 h, 37 °C, OD600 <0.1 in at least 3 of 4 wells, 2-128 μg/mL; shaded values previously reported ref 18
Summary of the method: as §1

[1] = system: S. aureus 49525 (Xen36 luciferase); format: cell-based, Staphylococcus aureus; conditions: 8 μg/mL, 60 min incubation, bioluminescence, triplicates from two independent experiments
From the text: (§2) Fungal and bacterial strains were obtained from American Type Culture Collection (ATCC, Manassas, VA, USA) or the clinical isolate collection at Trideum Biosciences (Frederick, MD, USA) and are presented in Table 1 and Table 2, respectively. Bioluminescence strains of P. aeruginosa 19660, transfected with the Xen5 luciferase gene, and S. aureus ATCC R 49525TM (Wright), transfected with the Xen36 luciferase gene, were obtained from Perkin Elmer (Waltham, MA, USA).
(§3) Real-time killing of bacterial cells, P. aeruginosa or S. aureus, and mammalian cytotoxicity to assess dAMP off-target toxicity was evaluated using bioluminescent cells. The L929 fibroblast cells (ATCC, Manassas, VA, USA) were made bioluminescent by transfection with a luciferase gene. Cells (1 × 10^4 cells, 100 μL) were plated in 96-well black-walled plates and the candidate dAMPs were 2-fold serially diluted from specified concentrations in growth medium supplemented with 150 μg/mL D-luciferin. Each concentration was performed in triplicate, with the final volume being 200 μL. Imaging was performed at select times after the addition of the dAMP, and compared to concurrently run vehicle-control, using an IVIS Lumina imaging system (Caliper Life Sciences, Inc., Hopkinton, MA, USA). For imaging, the 96-well plate was positioned on the stage (12.5-cm field of view), with an open emission filter, binning of 4, and f-stop 1 and a 1-min exposure time. Monitoring bioluminescence allows assessment of the kinetics of cellular viability as there is a tight correlation between the bioluminescent signal and cell viability. Data analysis was performed using the Living Image software program (version 4.3, Caliper Life Sciences, Inc., Hopkinton, MA, USA).
(§4) Figure 3 RP553, RP556, RP557 rapidly destroy P. aeruginosa and S. aureus. The bioluminescence of viable P. aeruginosa 19,660 and S. aureus 49,525 cells was quantitated in real time with an IVIS Lumina bioimaging system. Data represent the mean ± SE of triplicate replicates from two independent experiments. For some points, the error bars are shorter than the height of the symbols.

K. pneumonia ATCC 10031 = format: cell-based, Klebsiella pneumoniae; conditions: cation adjusted Mueller-Hinton broth, ~10^6 CFU/mL, 24 h, 37 °C, OD600 <0.1 in at least 3 of 4 wells, 2-128 μg/mL; shaded values previously reported ref 18
Summary of the method: as §1

K. pneumonia 6069 = format: cell-based, Klebsiella pneumoniae; conditions: cation adjusted Mueller-Hinton broth, ~10^6 CFU/mL, 24 h, 37 °C, OD600 <0.1 in at least 3 of 4 wells, 2-128 μg/mL; shaded values previously reported ref 18
Summary of the method: as §1

Candida biofilm = conditions: cited from earlier work
From the text: (§5) Early and empiric treatment is required due to the rapid emergence of both bacterial and fungal resistance and resilience due to biofilm formation multi-drug resistant organisms and their associated biofilms play a significant role in the pathogenicity and chronicity of wound infections. The resistance of bacteria and fungi residing in biofilms is due to the biofilm matrix acting as a fortified barrier and the presence of slow-growing microbes with poor metabolic activity, known as persisters. The dAMPs direct perturbation of cellular membranes is effective at eradicating biofilms. RP55 ...

[2] = system: preformed and mature MRSA biofilm; conditions: cited from earlier work
From the text: as §5

[3] = system: P. aeruginosa 19660 (Xen5 luciferase); assay: Bioluminescent time-kill assay; format: cell-based, Pseudomonas aeruginosa; conditions: 8 μg/mL; RP553 at 60 min; bioluminescence
From the text: as §2, §3, §4

SMILES: CC[C@H](C)[C@@H]1NC(=O)CNC(=O)[C@H](CCCCN)NC(=O)[C@H](Cc2ccc(O)cc2)NC(=O)[C@@H]2CSSC[C@H](NC1=O)C(=O)N[C@@H](Cc1ccccc1)C(=O)N[C@@H](CCCCN)C(=O)N[C@@H](CCCCN)C(=O)N[C@H](C(=O)N[C@@H](CCCCN)C(N)=O)CSSC[C@H](NC(=O)[C@H](Cc1ccccc1)NC(=O)[C@@H](N)CCCNC(=N)N)C(=O)N[C@@H](Cc1c[nH]c3ccccc13)C(=O)N[C@@H](CCCCN)C(=O)N[C@@H](C(C)C)C(=O)N2 [RP557] (H-RFCWKVCYKGICFKKCK-NH2; disulfide 3-16, 7-12)
- MIC against A. baumannii 6043 (A. baumannii 6043): 8 µg/mL (≈ 3.75 µM)
- MIC against A. baumannii ATCC 17978 (A. baumannii ATCC 17978): 16 µg/mL (≈ 7.49 µM)
- MIC against A. baumannii 6838 (A. baumannii 6838): 8 µg/mL (≈ 3.75 µM)
- MIC against MRSA ATCC 33592 (MRSA ATCC 33592): 4 µg/mL (≈ 1.87 µM)
- MIC against S. aureus B-767 (S. aureus B-767): 4 µg/mL (≈ 1.87 µM)
- MIC against MRSA 6313 (MRSA 6313): 4 µg/mL (≈ 1.87 µM)
- MIC against MRSA 6381 (MRSA 6381): 4 µg/mL (≈ 1.87 µM)
- MIC against S. aureus 6061 (S. aureus 6061): 8 µg/mL (≈ 3.75 µM)
- S. aureus killing [1]: 70%
- MIC against K. pneumonia ATCC 10031 (K. pneumonia ATCC 10031): 8 µg/mL (≈ 3.75 µM)
- MIC against K. pneumonia 6069 (K. pneumonia 6069): 4 µg/mL (≈ 1.87 µM)
- disruption of Candida biofilm (Candida biofilm): completely disrupted
- disruption of preformed and mature MRSA biofilm [2]: completely disrupted
- P. aeruginosa killing (in words) [3]: immediate eradication
